This note sets out measurements from patent US20070148051A1, “Chemical volatilization device” (Dainihon Jochugiku Co., Ltd., priority 2005, published 2007).

Each structure is given as a SMILES string.

The subject of experiment [1] is harmful insects such as mosquitoes and midges. The experiment in a line: Experiment Example 2: device suspended in a doghouse, insecticidal effects. It counts as in vivo. Particulars: 70 mg Compound A retained, 1400 rpm, 8 hours per day for about 30 days. The source says: Two-dimensional mesh-like chemical-retaining fibers 2 were woven using twisted polyester fibers, and supportive connecting chemical-retaining fibers 3 (upper and lower widths: 2.5 mm), comprised of nylon fibers, were arranged in a state in which a columnar structure and a diagonal structure were overlapped based on the constitution of the aforementioned (8) shown in FIG. 8 to produce a disc-like chemical retainer 1 having an overall thickness in the vertical direction of 4.2 mm and an outer diameter of 4.5 cm.
70 mg of Compound A (2,3,5,6-tetrafluorobenzyl-2,2-dimethyl-3-(2,2-dichlorovinyl)cyclopropane carboxylate) was retained instead of the chemical used in Experiment Example 1 and activated for 240 hours.
This chemical retainer 1 was housed in the protective case 4 of Experiment Example 1, activated for 8 hours per day by suspending in a doghouse at a rotating speed of 1400 rpm, and said activation was continued for about 30 days.

The test system of a further experiment is mosquitoes. Briefly: Experiment Example 1: chemical volatilization device activated, mosquito control. It counts as in vivo. As to conditions: 40 mg Compound C dissolved in kerosene retained in chemical retainer, 1200 rpm, over about 120 hours. From the text: Two-dimensional mesh-like chemical-retaining fibers 2 were woven on both the upper and lower sides using twisted polyester fibers, and supportive connecting chemical-retaining fibers 3 (upper and lower widths: 3 mm), comprised of polyester fibers, were arranged between both sides based on a diagonal structure according to the constitution of the aforementioned (6) as shown in FIG. 6 to produce a disc-like chemical retainer 1 having an overall thickness in the vertical direction of 4.0 mm and an outer diameter of 4.0 cm.
The chemical retainer 1 was housed in a protective case 4 made of polycarbonate (outer diameter: 5.0 cm, thickness: 8 mm), and the protective case 4 employed a roughly circular cross-section for circumferential retaining frames 41.
In this type of chemical retainer 1, a chemical solution, in which 40 mg of Compound C (4-methoxymethyl-2,3,5,6-tetrafluorobenzyl-2,2-dimethyl-3-(1-propenyl)cyclopropane carboxylate) were dissolved in kerosene, was retained in said chemical retainer 1, and after housing in the protective case 4, was activated for 120 hours at a rotating speed of 1200 rpm.

Regarding `CC1(C)C(C=C(Cl)Cl)C1C(=O)OCc1c(F)c(F)cc(F)c1F` (centres unmarked) [Compound A, 2,3,5,6-tetrafluorobenzyl-2,2-dimethyl-3-(2,2-dichlorovinyl) cyclopropane carboxylate], the “insecticidal effects against harmful insects during continuous activation” value in experiment [1] is “stable insecticidal effects”.

Take `CC=CC1C(C(=O)OCc2c(F)c(F)c(COC)c(F)c2F)C1(C)C` (centres unmarked) [Compound C, 4-methoxymethyl-2,3,5,6-tetrafluorobenzyl-2,2-dimethyl-3-(1-propenyl)cyclopropane carboxylate]: the “control of mosquitoes during activation” value in the experiment with mosquitoes was “effectively controlled”.
